Test [1] is described as follows: Inhibition of PDGF-dependent PDGFR autophosphorylation in rat A10 cells. Format: cell-based.
A short description of test [2]: Inhibition of PDGF-dependent PDGFR-mediated cell proliferation in rat A10 cells. Type of test: cell-based.
Test [3] deals with T1, Platelet-derived growth factor receptor beta (Homo sapiens, UniProt P09619). Briefly: Inhibition of recombinant cytoplasmic domain of PDGFRbeta autophosphorylation expressed in baculovirus infected Sf21 insect cells using [gamma-33P]ATP by SDS-PAGE based scintillation counting.
T1 sequence (P09619 whole entry, the tested form may be a part): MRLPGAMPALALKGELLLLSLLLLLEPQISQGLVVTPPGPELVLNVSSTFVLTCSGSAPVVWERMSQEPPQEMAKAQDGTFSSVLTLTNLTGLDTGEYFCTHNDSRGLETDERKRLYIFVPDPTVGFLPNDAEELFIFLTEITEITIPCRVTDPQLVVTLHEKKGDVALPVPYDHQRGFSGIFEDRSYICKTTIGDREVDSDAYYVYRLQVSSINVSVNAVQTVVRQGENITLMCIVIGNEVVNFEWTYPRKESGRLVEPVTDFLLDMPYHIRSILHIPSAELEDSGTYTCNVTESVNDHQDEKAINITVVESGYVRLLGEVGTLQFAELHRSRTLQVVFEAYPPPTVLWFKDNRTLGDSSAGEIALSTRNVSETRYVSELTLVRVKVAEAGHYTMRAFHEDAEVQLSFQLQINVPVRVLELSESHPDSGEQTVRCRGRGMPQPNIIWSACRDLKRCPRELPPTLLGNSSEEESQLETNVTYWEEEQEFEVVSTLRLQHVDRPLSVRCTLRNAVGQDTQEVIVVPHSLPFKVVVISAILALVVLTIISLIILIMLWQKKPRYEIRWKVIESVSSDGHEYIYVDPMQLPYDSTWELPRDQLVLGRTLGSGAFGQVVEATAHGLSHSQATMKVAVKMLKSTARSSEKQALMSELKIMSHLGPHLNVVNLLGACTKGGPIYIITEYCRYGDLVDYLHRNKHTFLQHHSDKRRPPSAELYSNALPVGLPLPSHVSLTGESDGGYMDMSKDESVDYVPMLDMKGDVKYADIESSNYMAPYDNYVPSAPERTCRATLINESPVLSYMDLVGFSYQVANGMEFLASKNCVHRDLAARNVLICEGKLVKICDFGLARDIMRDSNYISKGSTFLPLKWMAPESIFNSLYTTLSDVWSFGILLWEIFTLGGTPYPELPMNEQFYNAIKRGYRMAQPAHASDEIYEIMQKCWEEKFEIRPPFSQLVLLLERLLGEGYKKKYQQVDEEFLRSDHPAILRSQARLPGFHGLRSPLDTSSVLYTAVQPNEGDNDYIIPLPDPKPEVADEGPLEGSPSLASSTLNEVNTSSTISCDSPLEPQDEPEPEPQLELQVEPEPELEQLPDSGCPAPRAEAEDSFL
The target of test [4] is T1, Platelet-derived growth factor receptor beta. Kind of test: Inhibition of recombinant cytoplasmic domain of PDGFRbeta expressed in baculovirus infected Sf21 insect cells using poly(Glu4,Tyr1) and [gamma-33P]ATP at 100 uM by SDS-PAGE based scintillation counting.
Test [5] has the same target. Kind of test: Inhibition of recombinant cytoplasmic domain of PDGFRbeta expressed in baculovirus infected Sf21 insect cells using 10 fold less poly(Glu4,Tyr1) and [gamma-33P]ATP at 100 uM by SDS-PAGE based scintillation counting.
The target is the same in test [6]. Kind of test: Inhibition of recombinant cytoplasmic domain of PDGFRbeta expressed in baculovirus infected Sf21 insect cells assessed as tyrosine phosphorylation treated 30 hrs after infection measured after 48 hrs of post infection by Western blotting.

The source made the active and inactive calls. The rule behind the calls is not given here.

Our source for the IC50 and inhibition values is ChEMBL document CHEMBL1955835, “Effects of the indolocarbazole 3744W on the tyrosine kinase activity of the cytoplasmic domain of the platelet-derived growth factor beta-receptor” (Cell Signal, 1999).

For `COc1ccc2[nH]c3c4[nH]c5ccc(OC)cc5c4c4c(c3c2c1)C(=O)NC4=O` [GW296115X], the IC50 in test [1] was determined as 15 nM; in test [2], 10 nM; in test [3], 1800 nM; in test [6] it was 2000 nM. Besides, the inhibition result in test [3] and in test [6] was “Dose-dependent effect” each time. For the same compound, the inhibition result in test [4] and in test [5] was “inactive” throughout.
